Assays:
Format in all cases: cell-based
human TLR7 = molecular target: T1, human TLR7 (Homo sapiens, UniProt Q9NYK1); experiment: TLR7 inhibition reporter assay (HEK-Blue cells, SEAP reporter, gardiquimod stimulation); settings: HEK-Blue cells overexpressing human TLR7, SEAP reporter, gardiquimod 7.5 μM
T1 construct: host or cells: HEK-Blue cells (HEK293-derived reporter line)
T1 sequence (Q9NYK1 27-1049): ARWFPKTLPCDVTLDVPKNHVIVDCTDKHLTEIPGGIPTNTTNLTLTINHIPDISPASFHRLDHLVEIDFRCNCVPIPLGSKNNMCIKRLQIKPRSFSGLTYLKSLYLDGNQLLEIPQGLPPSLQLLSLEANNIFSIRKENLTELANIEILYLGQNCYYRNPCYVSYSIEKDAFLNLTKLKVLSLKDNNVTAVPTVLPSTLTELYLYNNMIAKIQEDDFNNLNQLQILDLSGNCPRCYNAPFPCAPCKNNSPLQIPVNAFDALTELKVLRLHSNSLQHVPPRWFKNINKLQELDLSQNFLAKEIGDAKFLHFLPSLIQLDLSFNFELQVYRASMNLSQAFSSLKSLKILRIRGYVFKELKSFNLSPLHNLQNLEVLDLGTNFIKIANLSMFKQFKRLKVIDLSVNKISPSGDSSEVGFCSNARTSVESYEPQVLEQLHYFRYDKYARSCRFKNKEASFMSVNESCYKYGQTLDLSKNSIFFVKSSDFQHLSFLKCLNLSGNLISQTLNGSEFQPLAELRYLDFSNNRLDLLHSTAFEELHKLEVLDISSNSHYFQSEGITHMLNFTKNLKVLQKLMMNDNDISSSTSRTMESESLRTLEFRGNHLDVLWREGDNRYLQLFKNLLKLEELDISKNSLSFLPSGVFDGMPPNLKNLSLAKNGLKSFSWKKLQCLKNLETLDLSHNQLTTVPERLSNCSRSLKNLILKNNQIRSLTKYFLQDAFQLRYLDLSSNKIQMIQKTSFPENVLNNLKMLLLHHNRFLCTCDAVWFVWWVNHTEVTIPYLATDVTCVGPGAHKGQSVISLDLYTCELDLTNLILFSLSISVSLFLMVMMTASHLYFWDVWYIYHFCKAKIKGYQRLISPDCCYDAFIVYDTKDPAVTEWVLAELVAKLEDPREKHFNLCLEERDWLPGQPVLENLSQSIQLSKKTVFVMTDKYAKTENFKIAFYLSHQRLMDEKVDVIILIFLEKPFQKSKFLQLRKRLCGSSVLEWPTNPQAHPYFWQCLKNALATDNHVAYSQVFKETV
Procedure, shortened: (§1)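 Percent inhibition of agonist-induced SEAP secretion in HEK-Blue cells after 22 h at 37 °C. Stimuli: 7.5 μM gardiquimod, 15.9 μM R848, 5 nM ODN2006 for TLR7, TLR8 and TLR9, added after 30 min compound exposure over a 0.05 nM–50 μM range.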

human TLR8 = molecular target: T2, human TLR8 (Homo sapiens, UniProt Q9NR97); experiment: TLR8 inhibition reporter assay (HEK-Blue cells, SEAP reporter, R848 stimulation); settings: HEK-Blue cells overexpressing human TLR8, SEAP reporter, R848 15.9 μM
T2 construct: host or cells: HEK-Blue cells (HEK293-derived reporter line)
T2 sequence (Q9NR97 27-1041): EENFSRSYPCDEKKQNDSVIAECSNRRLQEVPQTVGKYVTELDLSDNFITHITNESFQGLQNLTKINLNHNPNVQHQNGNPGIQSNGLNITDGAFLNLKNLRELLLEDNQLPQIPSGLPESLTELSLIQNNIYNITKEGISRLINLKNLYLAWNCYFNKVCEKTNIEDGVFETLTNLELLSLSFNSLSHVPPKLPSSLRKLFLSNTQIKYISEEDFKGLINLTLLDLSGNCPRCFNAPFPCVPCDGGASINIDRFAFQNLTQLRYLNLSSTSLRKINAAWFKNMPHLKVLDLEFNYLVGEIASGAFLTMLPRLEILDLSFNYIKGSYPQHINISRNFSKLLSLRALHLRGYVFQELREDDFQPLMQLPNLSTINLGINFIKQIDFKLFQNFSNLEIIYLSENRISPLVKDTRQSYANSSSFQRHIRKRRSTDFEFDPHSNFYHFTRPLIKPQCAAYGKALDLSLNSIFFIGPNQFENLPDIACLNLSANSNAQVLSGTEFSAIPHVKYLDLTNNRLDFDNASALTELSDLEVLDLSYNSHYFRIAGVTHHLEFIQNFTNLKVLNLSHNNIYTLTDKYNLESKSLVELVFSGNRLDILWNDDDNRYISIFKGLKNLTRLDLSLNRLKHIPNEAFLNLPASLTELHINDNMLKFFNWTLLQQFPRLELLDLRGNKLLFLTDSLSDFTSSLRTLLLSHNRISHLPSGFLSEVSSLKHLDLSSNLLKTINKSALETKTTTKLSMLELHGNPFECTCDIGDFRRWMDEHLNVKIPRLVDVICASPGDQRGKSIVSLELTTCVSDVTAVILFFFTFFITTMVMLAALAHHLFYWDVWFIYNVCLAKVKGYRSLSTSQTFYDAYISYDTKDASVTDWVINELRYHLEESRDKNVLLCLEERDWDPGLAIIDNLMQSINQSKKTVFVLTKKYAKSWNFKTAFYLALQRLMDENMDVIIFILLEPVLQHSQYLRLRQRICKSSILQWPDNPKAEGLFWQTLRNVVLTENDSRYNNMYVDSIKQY
Procedure, shortened: as §1

human TLR9 = molecular target: T3, human TLR9 (Homo sapiens, UniProt Q9NR96); experiment: TLR9 inhibition reporter assay (HEK-Blue cells, SEAP reporter, ODN2006 stimulation); settings: HEK-Blue cells overexpressing human TLR9, SEAP reporter, ODN2006 5 nM
T3 construct: host or cells: HEK-Blue cells (HEK293-derived reporter line)
T3 sequence (Q9NR96 26-1032): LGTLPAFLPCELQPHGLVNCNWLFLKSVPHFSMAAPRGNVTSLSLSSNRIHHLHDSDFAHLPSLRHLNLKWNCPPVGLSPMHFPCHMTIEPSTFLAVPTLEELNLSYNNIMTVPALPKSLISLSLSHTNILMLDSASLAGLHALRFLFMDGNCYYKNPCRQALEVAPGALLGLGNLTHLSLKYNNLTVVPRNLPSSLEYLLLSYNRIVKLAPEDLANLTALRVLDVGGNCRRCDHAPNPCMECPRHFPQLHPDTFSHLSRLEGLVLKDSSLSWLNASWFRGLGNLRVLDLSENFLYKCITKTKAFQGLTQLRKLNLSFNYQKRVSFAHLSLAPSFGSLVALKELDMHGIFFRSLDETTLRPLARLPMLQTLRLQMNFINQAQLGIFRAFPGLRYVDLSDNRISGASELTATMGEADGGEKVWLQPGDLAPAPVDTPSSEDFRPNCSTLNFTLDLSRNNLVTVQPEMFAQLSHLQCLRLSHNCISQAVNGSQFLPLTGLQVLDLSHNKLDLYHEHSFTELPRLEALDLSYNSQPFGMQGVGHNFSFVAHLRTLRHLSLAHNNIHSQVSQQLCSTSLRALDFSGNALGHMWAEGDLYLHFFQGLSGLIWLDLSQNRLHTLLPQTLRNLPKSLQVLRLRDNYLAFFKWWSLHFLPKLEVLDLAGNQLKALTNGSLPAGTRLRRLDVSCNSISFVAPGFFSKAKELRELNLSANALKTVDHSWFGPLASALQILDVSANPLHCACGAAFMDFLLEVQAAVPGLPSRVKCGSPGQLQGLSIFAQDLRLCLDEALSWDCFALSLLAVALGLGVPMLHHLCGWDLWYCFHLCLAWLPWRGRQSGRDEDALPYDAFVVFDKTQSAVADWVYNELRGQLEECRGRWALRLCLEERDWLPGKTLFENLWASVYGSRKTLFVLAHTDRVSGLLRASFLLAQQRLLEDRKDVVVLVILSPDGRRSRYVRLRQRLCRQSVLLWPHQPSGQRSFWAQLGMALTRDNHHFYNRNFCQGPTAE
Procedure, shortened: as §1

IC50 (human TLR7) | IC50 (human TLR8) | IC50 (human TLR9) | SMILES
< 100 nM | 100 to 1000 nM | 100 to 1000 nM | CNCC(=O)N1CCC(c2ccc3[nH]c(-c4cc(C(F)(F)F)c5nccn5c4)c(C(C)C)c3c2)CC1 [Example 508, 1-(4-(3-isopropyl-2-(8-(trifluoromethyl)imidazo[1,2-a]pyridin-6-yl)-1H-indol-5-yl)piperidin-1-yl)-2-(methylamino)ethan-1-one]
100 to 1000 nM | 100 to 1000 nM | > 50000 nM | CC(C)c1c(-c2ccnc3[nH]ncc23)[nH]c2ccc(C3CCN(C(=O)CN4CCNC(=O)C4)CC3)cc12 [Example 587, 4-(2-(4-(3-isopropyl-2-(1H-pyrazolo[3,4-b]pyridin-4-yl)-1H-indol-5-yl)piperidin-1-yl)-2-oxoethyl) piperazin-2-one]
100 to 1000 nM | < 100 nM | 100 to 1000 nM | CCc1c(-c2ccnc3[nH]ncc23)[nH]c2ccc(C3CCN(Cc4cnc[nH]4)CC3)cc12 [Example 863, 4-(5-(1-((1H-imidazol-5-yl)methyl)piperidin-4-yl)-3-ethyl-1H-indol-2-yl)-1H-pyrazolo[3,4-b]pyridine]
100 to 1000 nM | 100 to 1000 nM | 100 to 1000 nM | CCc1c(-c2ccnc3[nH]ncc23)[nH]c2ccc(C3CCN(Cc4[nH]cnc4C)CC3)cc12 [Example 916, 4-(3-ethyl-5-(1-((4-methyl-1H-imidazol-5-yl)methyl)piperidin-4-yl)-1H-indol-2-yl)-1H-pyrazolo[3,4-b]pyridine]
< 100 nM | < 100 nM | 1000 to 50000 nM | CC(C)c1c(-c2cn(C)c3ncccc23)[nH]c2ccc(C3CCN(CC(C)(C)O)CC3)cc12 [Example 750, 1-(4-(3-isopropyl-2-(1-methyl-1H-pyrrolo[2,3-b]pyridin-3-yl)-1H-indol-5-yl)piperidin-1-yl)-2-methylpropan-2-ol]

Second part, the compound before the results:

SMILES | IC50 (human TLR7) | IC50 (human TLR8) | IC50 (human TLR9)
CC(C)c1c(-c2cc(Cl)c3ncccc3c2)[nH]c2ccc(C3CCN(CC(=O)N(C)C)CC3)cc12 [Example 380, 2-(4-(2-(8-chloroquinolin-6-yl)-3-isopropyl-1H-indol-5-yl)piperidin-1-yl)-N,N-dimethylacetamide] | < 100 nM | < 100 nM | 1000 to 50000 nM
COc1cc(-c2[nH]c3ccc(C4CCNCC4)cc3c2C(C)C)cn2ccnc12 [Example 125, 6-(3-isopropyl-5-(piperidin-4-yl)-1H-indol-2-yl)-8-methoxyimidazo[1,2-a]pyridine] | < 100 nM | < 100 nM | 100 to 1000 nM
CC(C)c1c(-c2cc(Cl)c3ncccc3c2)[nH]c2ccc(C3CCNCC3)cc12 [Example 139, 8-chloro-6-(3-isopropyl-5-(piperidin-4-yl)-1H-indol-2-yl)quinoline] | < 100 nM | < 100 nM | 1000 to 50000 nM
CNC(=O)CN1CCC(c2ccc3[nH]c(-c4cc(C)c5oc(=O)n(C)c5c4)c(C(C)C)c3c2)CC1 [Example 336, 2-(4-(2-(3,7-dimethyl-2-oxo-2,3-dihydrobenzo[d]oxazol-5-yl)-3-isopropyl-1H-indol-5-yl)piperidin-1-yl)-N-methylacetamide] | < 100 nM | 100 to 1000 nM | 1000 to 50000 nM
CCc1c(-c2ccnc3[nH]cnc23)[nH]c2ccc(C3CCNCC3)cc12 [Example 59, 7-(3-ethyl-5-(piperidin-4-yl)-1H-indol-2-yl)-3H-imidazo[4,5-b]pyridine] | < 100 nM | < 100 nM | 100 to 1000 nM
CC(C)c1c(-c2ccc3[nH]nc(N)c3c2)[nH]c2ccc(C3CCNCC3)cc12 [Example 93, 5-(3-isopropyl-5-(piperidin-4-yl)-1H-indol-2-yl)-1H-indazol-3-amine] | < 100 nM | < 100 nM | 100 to 1000 nM
Cc1c(-c2[nH]c3ccc(C4CCNCC4)cc3c2C(C)C)cn2nnnc2c1C [Example 73, 6-(3-isopropyl-5-(piperidin-4-yl)-1H-indol-2-yl)-7,8-dimethyltetrazolo[1,5-a]pyridine] | < 100 nM | < 100 nM | 1000 to 50000 nM
CNC(=O)CN1CCC(c2ccc3[nH]c(-c4cc(OC)c5nccn5c4)c(C(C)C)c3c2)CC1 [Example 434, 2-(4-(3-isopropyl-2-(8-methoxyimidazo[1,2-a]pyridin-6-yl)-1H-indol-5-yl)piperidin-1-yl)-N-methylacetamide] | < 100 nM | < 100 nM | 100 to 1000 nM
CC(C)c1c(-c2ccc3ncoc3c2)[nH]c2ccc(C3CCN(CC(=O)N(C)C)CC3)cc12 [Example 288, 2-(4-(2-(benzo[d]oxazol-6-yl)-3-isopropyl-1H-indol-5-yl)piperidin-1-yl)-N,N-dimethylacetamide] | < 100 nM | < 100 nM | 1000 to 50000 nM
Cc1cc(-c2[nH]c3ccc(C4CCNCC4)cc3c2C(C)C)cc2c(C(=O)N(C)C)cnn12 [Example 275, 5-(3-isopropyl-5-(piperidin-4-yl)-1H-indol-2-yl)-N,N,7-trimethylpyrazolo[1,5-a]pyridine-3-carboxamide] | 100 to 1000 nM | > 3130 nM | 1000 to 50000 nM

Reference: patent publication US11739098B2 (BRISTOL-MYERS SQUIBB COMPANY, priority 2017, dated 2023)
